Literature values in patent US20100249031A1, “Nutritional Composition Comprising Curcuminoids and Methods of Manufacture” (priority 2009, published 2010).

Experiments:
Microtubule Assembly = conditions: @ 40 μM
[1] = percentage of ingested curcuminoid metabolized by the body

SMILES	Inhibition of Microtubule Assembly (Microtubule Assembly) [% @]	Metabolic Recovery [1] [%]
COc1cc(/C=C/C(=O)CC(=O)/C=C/c2ccc(O)c(OC)c2)ccc1O [Curcumin, curcumin]	50	–
COc1cc(/C=C/C(O)=C/C(=O)/C=C/c2ccc(O)cc2)ccc1O [DMC, demethoxycurcumin]	–	~50
O=C(/C=C/c1ccc(O)cc1)CC(=O)/C=C/c1ccc(O)cc1 [BDMC, bisdemethoxycurcumin]	–	~75
